This note sets out measurements from ChEMBL document CHEMBL1201862, “PubChem BioAssay data set” (2004).

Some test systems named below: HCC 2998; HOP-62; Malme-3M; EKVX; SK-MEL-2; SN12C; Hs-578T; 786-0; A498; K562; SK-MEL-28; SK-OV-3; SNB-19; IGROV-1; PC-3; COLO 205; LOX IMVI; SW-620; HOP-92; T47D.
Assay in all cases: NCI tumour cell line growth inhibition, 48 h

The structures appear in SMILES notation.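 Each compound was tested at five concentrations against cells in 96-well plates for 48 hours. GI50: concentration for 50% inhibition of growth.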 The source made the active and inactive calls. No stated cut-off is given here; in the data, active = GI50 up to about 1.1 µM and inactive = higher.

In the case of `Cn1c(=O)n2c(-c3ccccc3)c(-c3ccccc3)n2c1=O`, the GI50 with HCC 2998, in the experiment with HOP-62, in the experiment with Malme-3M, in the experiment on EKVX, in the experiment on SK-MEL-2 and with SN12C was > 100 µM (inactive) each time. Moreover, the GI50 in the experiment on Hs-578T, in the experiment with 786-0, in the experiment with A498, in the experiment on K562, in the experiment on SK-MEL-28 and in the experiment with SK-OV-3 was > 100 µM (inactive) each time. Further, the GI50 in the experiment with SNB-19, with IGROV-1, in the experiment on PC-3, in the experiment on COLO 205, in the experiment on LOX IMVI and in the experiment on SW-620 was > 100 µM (inactive) each time. Also, in the experiment with HOP-92, the GI50 was > 100 µM (inactive).
On to `CCOC(=O)COc1cc(-c2ccccc2F)nc2cc3c(cc12)OCO3`, for which the GI50 is > 100 µM (inactive) with HCC 2998; > 100 µM (inactive) in the experiment with HOP-62; > 100 µM (inactive) in the experiment with Malme-3M; 85.5 µM (inactive) with EKVX; > 100 µM (inactive) with SK-MEL-2; > 100 µM (inactive) in the experiment on SN12C. Further, the GI50 in the experiment on 786-0 was > 100 µM (inactive); in the experiment with K562, 38.1 µM (inactive); in the experiment on SK-MEL-28, > 100 µM (inactive); in the experiment with T47D, 79.8 µM (inactive); with SK-OV-3, > 100 µM (inactive); with IGROV-1, 90.8 µM (inactive). In addition, the GI50 in the experiment on PC-3 was > 100 µM (inactive); with COLO 205, > 100 µM (inactive); in the experiment on LOX IMVI it was 53.7 µM (inactive); in the experiment on SW-620 it was > 100 µM (inactive); in the experiment with HOP-92 it was 19.7 µM (inactive).
On to `O=C(O)c1c(CC(Cc2ccc3c(c2)CCC3)C(=O)O)ccc2c1CCC2` (stereo not drawn), for which the GI50 with HCC 2998, in the experiment with HOP-62, in the experiment with Malme-3M, with EKVX, in the experiment on SK-MEL-2 and in the experiment on SN12C was > 100 µM (inactive) in each case. In addition, the GI50 in the experiment with Hs-578T, in the experiment on 786-0, in the experiment on A498, in the experiment with K562, with SK-MEL-28 and in the experiment on SNB-19 was > 100 µM (inactive) each time. For the same compound, the GI50 with IGROV-1, in the experiment with PC-3, with COLO 205, in the experiment on LOX IMVI, in the experiment on SW-620 and in the experiment with HOP-92 was > 100 µM (inactive) each time.
`CCN(CC)CCCNc1n[n+]([O-])c2ccccc2[n+]1[O-]`: the GI50 in the experiment with HCC 2998 is 3.46 µM (inactive); in the experiment with Malme-3M, 11.3 µM (inactive); in the experiment with SK-MEL-2 it was 4.74 µM (inactive); in the experiment on SN12C, 4.68 µM (inactive); in the experiment on 786-0 it was 8.69 µM (inactive); in the experiment on A498, 3.62 µM (inactive). The GI50 is 6.93 µM (inactive) with K562; 63.1 µM (inactive) with SK-MEL-28; 14.3 µM (inactive) in the experiment with T47D; 25.9 µM (inactive) in the experiment with SNB-19; 5.73 µM (inactive) in the experiment with IGROV-1; 9.73 µM (inactive) with PC-3. Besides, the results for the GI50 in the experiment on COLO 205, in the experiment with SW-620 and with HOP-92 were 11.2 µM (inactive), 15.1 µM (inactive) and 27.1 µM (inactive), respectively.
As for `C=CCOC(=O)C1=C(CCC[C@@H](C)O[Si](C)(C)C(C)(C)C)N=C(N)N2[C@H](CCO)CC[C@@H]12`, the GI50 was 18.7 µM (inactive) in the experiment with HCC 2998; 14.1 µM (inactive) with HOP-62; 18 µM (inactive) in the experiment on Malme-3M; 15.3 µM (inactive) in the experiment on SK-MEL-2; 16.5 µM (inactive) with SN12C; 17.9 µM (inactive) in the experiment on 786-0. Besides, the GI50 in the experiment on A498 is 18 µM (inactive); in the experiment with K562, 6.34 µM (inactive); in the experiment with SK-MEL-28, 17.5 µM (inactive); with T47D, 11.8 µM (inactive); with SK-OV-3 it was 14.1 µM (inactive); in the experiment on SNB-19, 15.5 µM (inactive). The GI50 with PC-3 is 8.45 µM (inactive); in the experiment with COLO 205, 10.9 µM (inactive); in the experiment with HOP-92, 13.6 µM (inactive).
`O=C1N/C(=N/N=C/C(O)C(O)C(O)CO)N/C1=C\c1ccco1` (stereo not drawn): the GI50 with HCC 2998, in the experiment with HOP-62, in the experiment on Malme-3M, in the experiment on EKVX, in the experiment with SN12C and in the experiment on Hs-578T was > 100 µM (inactive) throughout. In addition, the GI50 in the experiment with 786-0, in the experiment with A498, in the experiment on K562, with SK-MEL-28, with T47D and with SK-OV-3 was > 100 µM (inactive) throughout. In addition, the GI50 is 0.0354 µM (active) with SNB-19; > 100 µM (inactive) in the experiment with IGROV-1; > 100 µM (inactive) in the experiment on COLO 205; > 100 µM (inactive) in the experiment on LOX IMVI; > 100 µM (inactive) in the experiment on SW-620; > 100 µM (inactive) in the experiment on HOP-92.
Take `COc1ccc(N[S+]([O-])C2CCCCC2)cc1` (stereo not drawn): the GI50 in the experiment on HCC 2998 was 59.2 µM (inactive); in the experiment on HOP-62 it was 91.8 µM (inactive); in the experiment with Malme-3M it was > 100 µM (inactive); in the experiment with EKVX, > 100 µM (inactive); in the experiment on SN12C, > 100 µM (inactive); in the experiment on Hs-578T, > 100 µM (inactive). Further, the GI50 in the experiment on 786-0, in the experiment on K562, with SK-MEL-28, with SNB-19, in the experiment on IGROV-1 and in the experiment on COLO 205 was > 100 µM (inactive) in each case. The GI50 in the experiment with LOX IMVI and with SW-620 was > 100 µM (inactive) in each case.
As for `Oc1ccc(/C=N/N=c2\[nH][nH]/c(=N\N=C\c3ccc(O)cc3O)c3ccccc23)c(O)c1`, the GI50 in the experiment with HOP-62 was 0.304 µM (active); with EKVX it was 0.211 µM (active); in the experiment on SK-MEL-2, 0.288 µM (active); in the experiment on SN12C it was 0.308 µM (active); with Hs-578T, 0.29 µM (active); with 786-0, 0.378 µM (active). The GI50 with K562 is 0.261 µM (active); with T47D, 0.271 µM (active); with SK-OV-3, 0.428 µM (active); with SNB-19, 0.473 µM (active); in the experiment with IGROV-1, 0.327 µM (active); in the experiment with PC-3, 0.375 µM (active). Also, the GI50 with COLO 205 was 0.581 µM (active); in the experiment on LOX IMVI, 0.313 µM (active); with SW-620, 0.385 µM (active).
In the case of `COC(=O)Cn1c(=O)oc2nc(-c3ccccc3)cc(C(F)(F)F)c21`, the GI50 was > 100 µM (inactive) in the experiment with HCC 2998; > 100 µM (inactive) with HOP-62; 70.6 µM (inactive) with EKVX; > 100 µM (inactive) in the experiment on SK-MEL-2; 56.6 µM (inactive) with SN12C; > 100 µM (inactive) in the experiment with 786-0. Further, the GI50 with A498 is > 100 µM (inactive); in the experiment on SK-MEL-28, 24.4 µM (inactive); in the experiment on T47D, > 100 µM (inactive); with SK-OV-3, > 100 µM (inactive); with SNB-19 it was > 100 µM (inactive); with IGROV-1, 66.1 µM (inactive). The GI50 is > 100 µM (inactive) in the experiment with PC-3, > 100 µM (inactive) in the experiment with COLO 205, 73.1 µM (inactive) in the experiment with SW-620 and 27.2 µM (inactive) in the experiment on HOP-92.
In the case of `O=C1/C(=C/c2ccccc2)CN(C(=O)Oc2ccc(Cl)cc2)C/C1=C\c1ccccc1`, the GI50 with HCC 2998 was 1.51 µM (inactive); with HOP-62 it was 10 µM (inactive); in the experiment with Malme-3M, 11.3 µM (inactive); in the experiment on EKVX, 10 µM (inactive); in the experiment with SK-MEL-2, 11.5 µM (inactive); in the experiment with SN12C, 1.84 µM (inactive). In addition, the GI50 with 786-0 was 1.96 µM (inactive); in the experiment with A498, 2.11 µM (inactive); with K562, 1.76 µM (inactive); in the experiment on SK-MEL-28 it was 2.1 µM (inactive); with SK-OV-3, 7.13 µM (inactive); in the experiment on SNB-19, 3.31 µM (inactive). Further, the GI50 with IGROV-1 is 3.05 µM (inactive); with COLO 205, 3.1 µM (inactive); in the experiment on LOX IMVI, 0.635 µM (active); with SW-620, 1.22 µM (inactive); in the experiment with HOP-92, 21.8 µM (inactive).
For `O=c1oc2ccc(Cl)cc2cc1-c1cn2cc(Cl)ccc2n1`, the GI50 with HCC 2998 is > 73.6 µM (inactive); in the experiment with HOP-62 it was > 69.3 µM (inactive); in the experiment with Malme-3M, 0.698 µM (active); in the experiment on EKVX, > 37.3 µM (inactive); with SK-MEL-2 it was > 100 µM (inactive); in the experiment with SN12C, > 89.1 µM (inactive). Moreover, the GI50 was > 42.4 µM (inactive) in the experiment with 786-0; 5.05 µM (inactive) in the experiment with K562; > 100 µM (inactive) in the experiment with SK-MEL-28; > 100 µM (inactive) in the experiment on T47D; > 100 µM (inactive) in the experiment with SK-OV-3; > 25.8 µM (inactive) with IGROV-1. For the same compound, the GI50 in the experiment on PC-3 was > 100 µM (inactive); with COLO 205, > 100 µM (inactive); with LOX IMVI it was > 28.2 µM (inactive); with SW-620, > 32.3 µM (inactive); with HOP-92, > 100 µM (inactive).
Take `CC(=O)c1ccc(NC(=O)C(=O)C(C#N)CC(C)(C)C=O)cc1` (stereo not drawn): the GI50 with HCC 2998, with HOP-62, in the experiment with Malme-3M, with EKVX, with SK-MEL-2 and in the experiment with SN12C was > 100 µM (inactive) in each case. The GI50 with 786-0, in the experiment on A498, with K562, with SK-MEL-28, with SK-OV-3 and in the experiment on SNB-19 was > 100 µM (inactive) in each case. For the same compound, the GI50 was > 100 µM (inactive) in the experiment with IGROV-1; > 100 µM (inactive) in the experiment on COLO 205; > 100 µM (inactive) in the experiment on LOX IMVI; > 100 µM (inactive) in the experiment on SW-620; 68.4 µM (inactive) in the experiment with HOP-92.
